# Assay results from patent US7807656B2, “Pharmaceutical applications of hyaluronic acid preparations” (priority 2001, dated 2010).
# Test system: adipose tissue
# Assay: addition of hyaluronic acid to liposuction infiltration solution
# Format: in vivo
# Details: added to infiltration solution
# Experimental: Hyaluronic acid can also be added to infiltration solutions which are injected into the tissue prior to a liposuction. These infiltration solutions are usually isotonic or hypotonic salt solutions which can contain additives, for example blood vessel-contracting and/or pain-reducing additives, such as noradrenaline, adrenaline, lidocaine, prilocalne, bicarbonate, corticosteroids, etc. Hyaluronic acid (crosslinked and/or uncrosslinked hyaluronic acid) is advantageously added to these solutions at concentrations of from 0.001 to 1.0% (wt/vol), preferably of from 0.01 to 0.5% (wt/vol), e.g. of about 0.025% (wt/vol). […] Furthermore, structures in the adipose tissue which are worth conserving, such as blood vessels, nerves or connective tissue bands, are spared. Adding the hyaluronic acid also makes the process of liposuction markedly more atraumatic when compared with the conventional procedure. […] This also leads to a reduction in the tissue trauma. All in all, adding hyaluronic acid to the infiltration solution protects the remaining adipose tissue in the body and results in the adipose tissue aspirate being withdrawn in a gentler manner.
# This is of importance insofar as adipose tissue aspirates can be used as endogenous transplants. […]
substance,measurement,setting,value
hyaluronic acid,survival of fat cells in the aspirate,,improves the survival of fat cells
same,growth of transferred tissue at the recipient site,aspirate transplanted,grow more strongly
